We go through six molecules from US12398131B2, “Thiadiazolyl derivatives as DNA polymerase theta inhibitors and uses thereof” (GlaxoSmithKline Intellectual Property (No.4) Limited, priority 2022, dated 2025).

Series [1] deals with BRCA1 mutant breast cancer line MDA-MB-436. The series can be described thus: 7-day CellTiter-Glo (CTG) cell viability and synergy assay. The series is classed as cell-based. Particulars: for EC50: Homo sapiens, MDA-MB-436, MDA-MB-436. As for the experimental part:
Single agent EC50 values for Compound A were above 30 μM in both cell lines. […] After 7 days, cell viability was assessed with the CTG assay. Dose response curves were interpolated using GraphPad Prism 9ART, and the synergy of drug combinations using data from the cell viability assays was analyzed with ComBenefit 2.02 (Table 4). Synergy scores of Compound A and Niraparib co-treatment were calculated using Combenefit. Synergy scores for combination matrices calculated with the Bliss, […] (least stringent) and Loewe (most stringent) models are shown. […] Synergistic effects of Compound A and ART558 were confirmed with talazoparib.

The nature of another series: Solubility in FASSIF. The series is classed as physicochemical. The conditions noted are these: FASSIF (Fasted State Simulated Intestinal Fluid).
Series [2] relates to TNBC MDA-MB-436 CDX model. The series can be described thus: Efficacy study in MDA-MB-436 TNBC CDX model (FIG. 5). The series is classed as in vivo, NSG mice. Particulars: olaparib alone 100 mg/kg QD; day 42 vs vehicle.
Substrate in series [3]: COc1nn(COP(=O)(O)O)/c(=N/C(=O)c2cnc(C)cc2-c2cc(Cl)ncc2OC)s1
Description: Hydrolysis kinetics of prodrug with recombinant alkaline phosphatase (phosphate sensor protein). In kind it is biochemical. As for the experimental part: Hydrolysis kinetics for Example 1, kcat, Km and kcat/Km, were determined with recombinant human, mouse, and rat alkaline phosphatases from commercial sources using the Invitrogen phosphate sensor protein.
Example 1 was hydrolyzed with similar efficiencies by recombinant human, mouse and rat alkaline phosphatases (Table 2). Three commercially available alkaline phosphatases (APase) were tested for the hydrolysis rate of Example 1. The human and rat enzymes are intestinal alkaline phosphatases, while the mouse APase is a tissue-nonspecific isozyme, which may explain some of the differences in kinetic parameters.

Setting [4] is: MDA-MB-436, combination with Talazoparib.

Values after ≈ are worked out from the molar mass of the structure shown. Values joined by “and” are separate entries in the source; they are usually repeats but may differ in a detail not shown here. Equal values may be shown once. Where a name gives a salt, the structure may show the parent alone. Read-outs that look alike come from different tables or passages of the source.

`Cc1cccc(N(C)C(=O)[C@@H]2[C@H](O)CCN2c2nc(C)cc(C(F)(F)F)c2C#N)c1` [ART558, reference compound]: the EC50 was greater than 100000 nM in series [1] (Niraparib 0 nM, read-out: EC50 of Artios' POLQi); greater than 30000 nM in series [1] (Talazoparib 0 nM, read-out: EC50); 3980 nM in series [1] (in combination with Niraparib 10 nM, read-out: EC50 of Artios' POLQi); 1760 nM in series [1] (in combination with Niraparib 30 nM, read-out: EC50 of Artios' POLQi); 1020 nM in series [1] (in combination with Niraparib 100 nM, read-out: EC50 of Artios' POLQi); 2300 nM in series [1] (in combination with Talazoparib 1.2 nM, read-out: EC50). Besides, the EC50 in series [1] (in combination with Talazoparib 3.7 nM, read-out: EC50) was 1090 nM. Moreover, in series [1] (setting [4]), the “Synergy score (ComBenefit) Bliss” value is on record as 7. Moreover, the “Synergy score (ComBenefit) HAS” value in series [1] (setting [4]) worked out at 18. Moreover, the “Synergy score (ComBenefit) Loewe” value in series [1] (setting [4]) was found to be 16.
The molecule `COc1nn(COC(=O)CCC(=O)O)/c(=N/C(=O)c2cnc(C)cc2-c2cc(Cl)ncc2OC)s1` [Example 2, (Z)-4-((2-((2′-chloro-5′-methoxy-6-methyl-[4,4′-bipyridine]-3-carbonyl)imino)-5-methoxy-1,3,4-thiadiazol-3(2H)-yl)methoxy)-4-oxobutanoic acid] came in with a solubility in the series “Solubility in FASSIF” of 72 µg/mL (≈ 138 µM).
Molecule `COc1nn(COC(=O)CC2CCNCC2)/c(=N/C(=O)c2cnc(C)cc2-c2cc(Cl)ncc2OC)s1` [Example 3, (Z)-(2-((2′-chloro-5′-methoxy-6-methyl-[4,4′-bipyridine]-3-carbonyl)imino)-5-methoxy-1,3,4-thiadiazol-3(2H)-yl)methyl 2-(piperidin-4-yl)acetate, formic acid salt] came in with a solubility in “Solubility in FASSIF” of 839 µg/mL.
Turning to `O=C(c1cc(Cc2n[nH]c(=O)c3ccccc23)ccc1F)N1CCN(C(=O)C2CC2)CC1` [olaparib, reference compound], the tumor growth inhibition in series [2] was 84%.

B1: Human rAPase (recombinant human intestinal alkaline phosphatase) (Homo sapiens) (protein)
chain: VIPAEEENPAFWNRQAAEALDAAKKLQPIQKVAKNLILFLGDGLGVPTVTATRILKGQKNGKLGPETPLAMDRFPYLALSKTYNVDRQVPDSAATATAYLCGVKANFQTIGLSAAARFNQCNTTRGNEVISVMNRAKQAGKSVGVVTTTRVQHASPAGTYAHTVNRNWYSDADMPASARQEGCQDIATQLISNMDIDVILGGGRKYMFPMGTPDPEYPADASQNGIRLDGKNLVQEWLAKHQGAWYVWNRTELMQASLDQSVTHLMGLFEPGDTKYEIHRDPTLDPSLMEMTEAALRLLSRNPRGFYLFVEGGRIDHGHHEGVAYQALTEAVMFDDAIERAGQLTSEEDTLTLVTADHSHVFSFGGYTLRGSSIFGLAPSKAQDSKAYTSILYGNGPGYVFNSGVRPDVNESESGSPDYQQQAAVPLSSETHGGEDVAVFARGPQAHLVHGVQEQSFVAHVMAFAACLEPYTACDLAPPACTTD
notes: purchased
Turning to B1, in series [3] (other: Human rAPase), the Km was 3.7 µM and 3.5 µM; the turnover number (kcat) came to 11 s⁻¹; the kcat/Km was 3.1 µM⁻¹ s⁻¹ and 3.0 µM⁻¹ s⁻¹.

B2: Mouse rAPase (recombinant mouse tissue-nonspecific alkaline phosphatase) (Mus musculus) (protein)
chain: FVPEKERDPSYWRQQAQETLKNALKLQKLNTNVAKNVIMFLGDGMGVSTVTAARILKGQLHHNTGEETRLEMDKFPFVALSKTYNTNAQVPDSAGTATAYLCGVKANEGTVGVSAATERTRCNTTQGNEVTSILRWAKDAGKSVGIVTTTRVNHATPSAAYAHSADRDWYSDNEMPPEALSQGCKDIAYQLMHNIKDIDVIMGGGRKYMYPKNRTDVEYELDEKARGTRLDGLDLISIWKSFKPRHKHSHYVWNRTELLALDPSRVDYLLGLFEPGDMQYELNRNNLTDPSLSEMVEVALRILTKNLKGFFLLVEGGRIDHGHHEGKAKQALHEAVEMDQAIGKAGAMTSQKDTLTVVTADHSHVFTFGGYTPRGNSIFGLAPMVSDTDKKPFTAILYGNGPGYKVVDGERENVSMVDYAHNNYQAQSAVPLRHETHGGEDVAVFAKGPMAHLLHGVHEQNYIPHVMAYASCIGANLDHCAWAG
notes: purchased
On to B2, for which, in series [3] (other: Mouse rAPase), the Km is 3.7 µM and 4.0 µM; the kcat was 10 s⁻¹ and 11 s⁻¹; the kcat/Km is 2.8 µM⁻¹ s⁻¹ and 2.7 µM⁻¹ s⁻¹.
